What was measured:
[1] = Displacement of [3H]vinblastine from P-gp in human KBV1 cell membrane vesicles; type: cell membranes
[2] = system: KB-V1; test: Potentiation of vinblastine-induced antitumor activity against human KBV1 cells xenografted in Ncr nude mouse assessed as growth inhibition at 0.13 mmol/kg by hallow fiber assay; type: functional; details: read-out: GI
[3] = Potentiation of vinblastine-induced antitumor activity against human KB-8-5 cells xenografted in Ncr nude mouse assessed as growth inhibition at 0.13 mmol/kg by hallow fiber assay; type: functional; details: read-out: GI
[4] = system: KB-V1; test: Potentiation of vinblastine-induced antitumor activity against human KBV1 cells xenografted in Ncr nude mouse assessed as growth inhibition at 0.136 mmol/kg by hallow fiber assay; type: functional; details: read-out: GI
[5] = Cytotoxicity against human KB1 cells; type: functional; details: read-out: ED50 (the source's name)
[6] = system: Rattus norvegicus; test: AUC (0 to 72 hrs) in rat at 50 mg/kg, po by LC-MS/MS method; type: ADME, organism-based; parameters: time < 72 hr, dose 50 mg/kg, route oral; details: in vivo
[7] = Cmax in rat at 50 mg/kg, po by LC-MS/MS method; type: ADME, organism-based; parameters: dose 50 mg/kg, route oral; details: in vivo
[8] = species: Homo sapiens; test: Inhibition of P-gp in human MCF7/DOX cells assessed as potentiation of doxorubicin-induced cytotoxicity by measuring fold reduction in doxorubicin IC50 at 5 uM; type: cell-based
[9] = species: Homo sapiens; test: Inhibition of P-gp in human MCF7/DOX cells assessed as potentiation of doxorubicin-induced cytotoxicity by measuring fold reduction in doxorubicin IC50 at 2.5 uM; type: cell-based
[10] = Tmax in rat at 50 mg/kg, po by LC-MS/MS method; type: ADME, organism-based; details: in vivo
[11] = Half life in rat at 50 mg/kg, po by LC-MS/MS method; type: ADME, organism-based; details: in vivo
[12] = Half life in patient with advanced stage of cancer at 500 mg/m2 by HPLC method; type: ADME, organism-based; details: human, in vivo
[13] = system: NCI/ADR-RES; test: Potentiation of doxorubicin-induced antitumor activity against human MCF7/ADR cells xenografted in nude mouse assessed as tumor growth inhibition at 30 mg/kg, ip every two days (reference value: -20%); type: functional; details: 48 h, read-out: TGI
[14] = Potentiation of vincristine-induced antitumor activity against human KBv200 cells xenografted in Balb/c nude mouse assessed as tumor growth inhibition at 30 mg/kg, ip every two days (reference value: 20%); type: functional; details: 48 h, read-out: TGI
[15] = Potentiation of paclitaxel-induced antitumor activity against human KBv200 cells in xenograft model assessed as tumor growth inhibition at 35 mg/kg, ip (reference value: 13%); type: functional; details: read-out: TGI
[16] = system: KB-V1; test: Downregulation of P-gp expression in human MDR KBV1 cells after 24 hrs relative to control; type: functional
[17] = Inhibition of P-gp ATPase activity in rat AS30-D/COL10 cell plasma membrane vesicles
[18] = system: P388; test: Potentiation of doxorubicin-induced antitumor activity against mouse P388/DOX25 cells implanted in mouse assessed as increase in mouse survival at 1.6 mg/kg, ip; type: functional
[19] = Inhibition of P-gp in rat AS30-D/COL10 cell plasma membrane vesicles assessed as reduction in [3H]VBL transport
[20] = species: Homo sapiens; test: Inhibition of P-gp in human Caco2 cells assessed as reduction in digoxin efflux at 4 uM relative to control; type: cell-based
[21] = target: MRP2 (ABCC2) (Homo sapiens, UniProt Q92887); test: Inhibition of MRP2 in human Caco2 cells assessed as reduction in pravastatin sodium efflux at 4 uM relative to control; type: cell-based; details: Caco-2 cells, probe pravastatin sodium
Sequence of MRP2 (ABCC2) (Q92887 whole entry): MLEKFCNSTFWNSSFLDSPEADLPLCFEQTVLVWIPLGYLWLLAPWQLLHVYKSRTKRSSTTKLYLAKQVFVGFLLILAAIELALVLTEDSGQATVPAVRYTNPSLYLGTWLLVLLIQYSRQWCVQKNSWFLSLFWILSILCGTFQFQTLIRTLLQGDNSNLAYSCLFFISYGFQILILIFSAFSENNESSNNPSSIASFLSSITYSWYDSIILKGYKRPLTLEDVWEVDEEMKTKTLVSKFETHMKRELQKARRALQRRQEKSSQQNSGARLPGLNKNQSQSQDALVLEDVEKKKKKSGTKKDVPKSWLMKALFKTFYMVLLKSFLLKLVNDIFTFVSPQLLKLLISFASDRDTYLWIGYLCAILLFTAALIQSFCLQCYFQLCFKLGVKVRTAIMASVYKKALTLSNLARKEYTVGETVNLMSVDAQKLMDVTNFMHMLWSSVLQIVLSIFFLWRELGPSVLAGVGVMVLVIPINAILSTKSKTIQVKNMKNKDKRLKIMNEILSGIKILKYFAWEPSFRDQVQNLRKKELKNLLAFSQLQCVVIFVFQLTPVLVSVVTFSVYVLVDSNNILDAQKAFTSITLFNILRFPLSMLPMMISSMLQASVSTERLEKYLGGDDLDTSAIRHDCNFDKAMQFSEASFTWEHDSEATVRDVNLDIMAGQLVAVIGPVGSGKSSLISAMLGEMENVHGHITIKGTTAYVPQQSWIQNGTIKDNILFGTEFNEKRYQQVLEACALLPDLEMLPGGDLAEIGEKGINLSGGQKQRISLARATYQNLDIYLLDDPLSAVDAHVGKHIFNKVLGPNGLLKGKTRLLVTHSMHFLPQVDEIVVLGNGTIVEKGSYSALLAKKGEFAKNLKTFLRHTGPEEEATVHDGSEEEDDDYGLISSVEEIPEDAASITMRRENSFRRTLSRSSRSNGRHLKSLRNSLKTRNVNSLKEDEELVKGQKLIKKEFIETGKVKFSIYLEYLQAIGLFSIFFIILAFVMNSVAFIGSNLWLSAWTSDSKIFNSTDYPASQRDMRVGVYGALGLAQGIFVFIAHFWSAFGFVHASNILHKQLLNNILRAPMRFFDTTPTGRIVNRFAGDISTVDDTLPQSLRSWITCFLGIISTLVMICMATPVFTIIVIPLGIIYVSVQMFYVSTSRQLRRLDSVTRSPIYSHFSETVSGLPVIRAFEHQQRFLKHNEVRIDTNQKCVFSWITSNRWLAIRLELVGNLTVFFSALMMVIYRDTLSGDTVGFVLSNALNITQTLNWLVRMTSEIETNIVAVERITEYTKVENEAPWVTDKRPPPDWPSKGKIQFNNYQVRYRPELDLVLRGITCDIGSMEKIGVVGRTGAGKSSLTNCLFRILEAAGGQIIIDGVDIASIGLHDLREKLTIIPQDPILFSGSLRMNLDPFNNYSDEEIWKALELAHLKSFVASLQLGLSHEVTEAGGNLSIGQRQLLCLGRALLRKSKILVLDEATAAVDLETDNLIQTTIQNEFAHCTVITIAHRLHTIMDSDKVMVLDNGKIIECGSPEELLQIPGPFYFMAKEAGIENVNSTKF

[22] = Cytotoxicity against human KBv200 cells after 72 hrs by MTT assay; type: functional, cell-based; details: KBv200, 72 h
[23] = system: Rattus norvegicus; test: AUC (0 to 72 hrs) in male Sprague-Dawley rat at 50 mg/kg, po by LC-MS/MS method; type: ADME, organism-based; parameters: dose 50 mg/kg, time < 72 hr, route oral; details: in vivo
[24] = Cmax in male Sprague-Dawley rat at 50 mg/kg, po by LC-MS/MS method; type: ADME, organism-based; parameters: dose 50 mg/kg, route oral; details: in vivo
[25] = Tmax in male Sprague-Dawley rat at 50 mg/kg, po by LC-MS/MS method; type: ADME, organism-based; details: in vivo
[26] = Half life in male Sprague-Dawley rat at 50 mg/kg, po by LC-MS/MS method; type: ADME, organism-based; details: in vivo
[27] = system: Rattus norvegicus; test: AUC (0 to 72 hrs) in female Sprague-Dawley rat at 50 mg/kg, po by LC-MS/MS method; type: ADME, organism-based; parameters: time < 72 hr, dose 50 mg/kg, route oral; details: in vivo
[28] = Cmax in female Sprague-Dawley rat at 50 mg/kg, po by LC-MS/MS method; type: ADME, organism-based; parameters: dose 50 mg/kg, route oral; details: in vivo
[29] = Tmax in female Sprague-Dawley rat at 50 mg/kg, po by LC-MS/MS method; type: ADME, organism-based; details: in vivo
[30] = Half life in female Sprague-Dawley rat at 50 mg/kg, po by LC-MS/MS method; type: ADME, organism-based; details: in vivo
[31] = system: Homo sapiens; test: AUC in healthy human at 30 mg/kg, iv by LC-MS/MS method; type: ADME, organism-based; details: in vivo
[32] = Primary phase half life in healthy human at 30 mg/kg, iv by LC-MS/MS method; type: ADME, organism-based; details: in vivo, read-out: alphat1/2
[33] = Terminal phase half life in healthy human at 30 mg/kg, iv by LC-MS/MS method; type: ADME, organism-based; details: in vivo, read-out: beta t1/2 (converted)
[34] = Potentiation of doxorubicin-induced antitumor activity against human KBv200 cells xenografted in Balb/c nude mouse assessed as tumor growth inhibition at 10 mg/kg, ip once daily for 12 days (reference value: 11.6%); type: functional; details: 288 h, read-out: TGI
[35] = Potentiation of epirubicin-induced antitumor activity against human KBv200 cells in xenograft model assessed as tumor growth inhibition at 10 mg/kg, ip (reference value: 29%); type: functional; details: read-out: TGI
[36] = Inhibition of P-gp in human MCF7/DX1 cells assessed as […] Rh123 accumulation after 30 to 40 mins by FACS analysis; type: cell-based
[37] = Inhibition of P-gp in human MCF7/DX1 cells assessed as [3H]daunomycin accumulation after 40 mins by liquid scintillation counting method; type: cell-based
[38] = Inhibition of P-gp in human MCF7/DX1 cells assessed as doxorubicin accumulation after 30 to 40 mins by FACS analysis; type: cell-based
[39] = Inhibition of P-gp in human MCF7/DX1 cells assessed as BODIPY-FL-verapamil accumulation after 30 to 40 mins by FACS analysis; type: cell-based
[40] = Inhibition of [125I]IAAP labeling to human P-gp expressed in baculovirus infected insect cell membranes after 10 mins
[41] = target: T1, ATP-dependent translocase ABCB1 (Homo sapiens, UniProt P08183); test: Inhibition of [125I]IAAP labeling to human MDR1 expressed in baculovirus infected insect cell membranes by electrophoresis method
T1 sequence (P08183 whole entry): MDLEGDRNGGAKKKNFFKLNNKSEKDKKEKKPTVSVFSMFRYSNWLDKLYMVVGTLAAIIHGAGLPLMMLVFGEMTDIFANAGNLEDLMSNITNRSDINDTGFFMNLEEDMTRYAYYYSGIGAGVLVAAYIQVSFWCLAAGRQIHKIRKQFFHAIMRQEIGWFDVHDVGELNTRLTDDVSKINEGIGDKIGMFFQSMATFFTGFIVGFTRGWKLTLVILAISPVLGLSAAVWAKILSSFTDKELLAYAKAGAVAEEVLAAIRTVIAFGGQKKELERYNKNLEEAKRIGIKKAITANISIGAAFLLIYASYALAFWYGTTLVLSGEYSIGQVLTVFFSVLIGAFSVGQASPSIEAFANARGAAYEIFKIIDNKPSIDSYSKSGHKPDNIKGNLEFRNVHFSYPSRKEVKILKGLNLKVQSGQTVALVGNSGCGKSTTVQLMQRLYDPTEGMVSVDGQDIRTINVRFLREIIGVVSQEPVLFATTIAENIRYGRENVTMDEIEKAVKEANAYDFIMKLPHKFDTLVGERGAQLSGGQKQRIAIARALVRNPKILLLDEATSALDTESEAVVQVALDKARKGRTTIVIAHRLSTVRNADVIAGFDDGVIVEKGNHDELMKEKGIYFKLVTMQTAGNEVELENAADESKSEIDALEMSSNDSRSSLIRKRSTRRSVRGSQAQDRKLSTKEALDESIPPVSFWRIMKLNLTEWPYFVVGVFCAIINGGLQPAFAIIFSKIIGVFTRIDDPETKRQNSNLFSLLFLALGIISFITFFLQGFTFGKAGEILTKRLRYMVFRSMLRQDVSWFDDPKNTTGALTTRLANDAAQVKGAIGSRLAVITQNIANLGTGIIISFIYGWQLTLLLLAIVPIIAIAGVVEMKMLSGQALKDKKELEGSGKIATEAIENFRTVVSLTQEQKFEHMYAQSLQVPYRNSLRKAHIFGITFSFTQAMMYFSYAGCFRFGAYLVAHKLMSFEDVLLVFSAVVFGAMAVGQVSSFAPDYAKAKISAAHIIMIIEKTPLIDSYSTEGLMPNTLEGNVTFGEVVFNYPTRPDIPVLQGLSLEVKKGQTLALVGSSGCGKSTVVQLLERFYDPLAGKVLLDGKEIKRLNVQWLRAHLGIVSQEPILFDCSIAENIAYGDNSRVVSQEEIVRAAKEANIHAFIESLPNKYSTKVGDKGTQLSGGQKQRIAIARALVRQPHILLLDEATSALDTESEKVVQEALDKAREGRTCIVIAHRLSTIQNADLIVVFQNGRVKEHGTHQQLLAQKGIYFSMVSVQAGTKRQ

[42] = target: T1, ATP-dependent translocase ABCB1; test: Inhibition of human MDR1 ATPase activity expressed in baculovirus infected insect cells preincubated for 30 mins followed by ATP addition measured after 20 mins by colorimetric method
[43] = target: T1, ATP-dependent translocase ABCB1; test: Displacement of 8-azido[alpha-32P]ATP from human MDR1 expressed in baculovirus infected insect cell membranes by phosphorimaging method
[44] = target: T2, Broad substrate specificity ATP-binding cassette transporter ABCG2 (Homo sapiens, UniProt Q9UNQ0); test: Inhibition of BCRP (unknown origin)
T2 sequence (Q9UNQ0 whole entry): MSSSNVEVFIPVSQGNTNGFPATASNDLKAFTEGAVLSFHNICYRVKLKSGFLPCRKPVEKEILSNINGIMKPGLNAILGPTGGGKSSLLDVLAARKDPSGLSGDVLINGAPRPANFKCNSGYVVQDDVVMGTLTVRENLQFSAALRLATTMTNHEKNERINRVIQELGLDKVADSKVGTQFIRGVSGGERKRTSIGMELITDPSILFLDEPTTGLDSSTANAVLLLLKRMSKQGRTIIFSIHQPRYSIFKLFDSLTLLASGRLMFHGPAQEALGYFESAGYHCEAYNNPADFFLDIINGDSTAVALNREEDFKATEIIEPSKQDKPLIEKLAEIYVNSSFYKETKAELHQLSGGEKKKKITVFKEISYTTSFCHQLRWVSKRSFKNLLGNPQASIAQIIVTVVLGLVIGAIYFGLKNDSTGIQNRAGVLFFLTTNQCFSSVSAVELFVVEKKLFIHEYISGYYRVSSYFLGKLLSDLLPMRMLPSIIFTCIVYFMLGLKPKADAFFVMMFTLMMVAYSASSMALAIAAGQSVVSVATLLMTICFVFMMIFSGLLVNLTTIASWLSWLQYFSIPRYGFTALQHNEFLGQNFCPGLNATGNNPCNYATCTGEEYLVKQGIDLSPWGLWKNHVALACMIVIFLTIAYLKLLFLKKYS

SMILES: COc1cc(/C=C/C(=O)OC2C(O)C3CC(OC(=O)c4cc(OC)c(OC)c(OC)c4)CC2N3C)cc(OC)c1OC (centres undefined)
- Ki [1]: 7300 nM
- inhibition in vivo at 130 µmol/kg [2]: ≤ 75%
- inhibition in vivo at 130 µmol/kg [3]: ≤ 75%
- inhibition in vivo at 136 µmol/kg [4]: ≤ 77.7%

SMILES: CC(/C=C/C=C\C=C\C=C(/C)C(=O)N[C@@H](C)CO)=C\[C@@H](C)[C@@H](O)/C(C)=C/[C@@H](C)CCc1ccccc1
- EC50 [5]: 0.03 nM

SMILES: COc1ccc2cc1Oc1ccc(cc1)C[C@@H]1c3cc(c(OC)cc3CCN1C)Oc1c(OC)c(OC)cc3c1[C@H](C2)N(C)CC3 [ISOTETRANDRINE]
- AUC [6]: 6279 µg/h/L
- Cmax [7]: 237 ng/mL
- fold change (FC) [8]: 20
- fold change (FC) [9]: 20
- Tmax [10]: 6 h
- half-life [11]: 20 h
- half-life [12]: 120 to 168 h
- inhibition in vivo at 30 mg/kg [13]: 58%
- inhibition in vivo at 30 mg/kg [14]: 62%
- inhibition in vivo at 35 mg/kg [15]: 76%

SMILES: CN[C@@H]1C[C@H]2O[C@@](C)([C@@H]1OC)n1c3ccccc3c3c4c(c5c6ccccc6n2c5c31)C(=O)NC4 [STAUROSPORINE]
- Activity [16]: 50%

SMILES: C=C[C@]1(C)C[C@@H](OC(=O)CSCCN(CC)CC)[C@]2(C)[C@H](C)CC[C@]3(CCC(=O)[C@H]32)[C@@H](C)[C@@H]1O [TIAMULIN]
- IC50 [17]: 540 nM
- survival at 1.6 mg/kg [18]: 29%
- IC50 [19]: 6200 nM

SMILES: O=C1c2ccccc2-n2c1nc1ccccc1c2=O [TRYPTANTHRIN]
- inhibition [20]: > 30%
- inhibition at 4 µM [21]: > 30%

SMILES: COc1ccc2cc1Oc1ccc(cc1)C[C@@H]1c3cc(c(OC)cc3CCN1C)Oc1c(OC)c(OC)c(Br)c3c1[C@H](C2)N(C)CC3
- IC50 [22]: 2000 nM
- AUC [23]: 6116 µg/h/L
- Cmax [24]: 607 ng/mL
- Tmax [25]: 3.67 h
- half-life [26]: 8.67 h
- AUC [27]: 21827 µg/h/L
- Cmax [28]: 835 ng/mL
- Tmax [29]: 4.67 h
- half-life [30]: 18.2 h
- AUC [31]: 64 µg/h/L
- half-life [32]: 0.5 h
- half-life [33]: 52 h
- inhibition in vivo at 10 mg/kg [34]: 39%
- inhibition in vivo at 10 mg/kg [35]: 48%

SMILES: COc1ccc2c3c1O[C@@H]1C[C@H](OC(=O)CCCCCCCCC(=O)O[C@H]4C=C[C@@]56CN(C)CCc7ccc(OC)c(c75)O[C@H]6C4)C=C[C@]31CN(C)CC2
- IC50 [36]: 800 nM
- IC50 [37]: 500 to 2000 nM
- IC50 [38]: 500 to 2000 nM
- IC50 [39]: 500 to 2000 nM
- IC50 [40]: 500 nM

SMILES: Nc1ncnc2c1ncn2[C@@H]1O[C@H](COC(=O)c2ccc(S(=O)(=O)F)cc2)[C@@H](O)[C@H]1O
- IC50 [41]: 170 nM
- IC50 [42]: 210 nM
- IC50 [43]: 680 nM

SMILES: COC(=O)[C@H]1[C@H]2C[C@@H]3c4[nH]c5cc(OC)ccc5c4CCN3C[C@H]2C[C@@H](OC(=O)c2cc(OC)c(OC)c(OC)c2)[C@@H]1OC [RESERPINE]
- IC50 [44]: 12600 nM
